According to article PMC8154574 (Journal of Medicinal Chemistry, 2021):

What was measured:
[1] = target: T1, hA2AAR (Homo sapiens, UniProt P29274); settings: label-free whole-cell assay, HEK293hA2AR
[2] = target: T1, hA2AAR; settings: 1 μM; all adenosine receptor subtypes
[3] = patients with heart failure; cited from earlier work

T1 sequence (P29274 whole entry): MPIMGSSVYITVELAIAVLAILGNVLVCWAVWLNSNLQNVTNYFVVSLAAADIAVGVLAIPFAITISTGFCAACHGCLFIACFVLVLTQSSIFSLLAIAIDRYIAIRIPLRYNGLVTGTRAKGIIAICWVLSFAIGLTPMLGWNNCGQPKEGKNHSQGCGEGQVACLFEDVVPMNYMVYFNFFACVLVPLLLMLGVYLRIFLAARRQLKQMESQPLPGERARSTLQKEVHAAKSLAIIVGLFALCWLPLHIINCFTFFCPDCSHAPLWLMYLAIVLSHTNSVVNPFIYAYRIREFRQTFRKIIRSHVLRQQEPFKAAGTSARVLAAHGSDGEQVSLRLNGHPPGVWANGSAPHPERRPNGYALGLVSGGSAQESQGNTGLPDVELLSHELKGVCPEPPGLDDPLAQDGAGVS

Structure (SMILES) | functional behavior / intrinsic activity at hA2AAR [1] | also measured
Nc1nc(SCc2ncc[nH]2)nc(-c2ccccc2)n1 [Compound 2, 4-(1H-Imidazol-2-yl)methylthio-6-phenyl-1,3,5-triazin-2-amine] | inverse agonism | –
N#Cc1c(SCc2ncc[nH]2)nc(N)nc1-c1ccccc1 [Compound 3, 4-((1H-Imidazol-2-yl)methylthio)-2-amino-6-phenylpyrimidine-5-carbonitrile] | inverse agonist | –
Nc1cc(-c2ccccc2)cc(SCc2ncc[nH]2)n1 [Compound 5, 6-(((1H-Imidazol-2-yl)methyl)thio)-4-phenylpyridin-2-amine] | – | displacement of radioligand binding in preliminary single-concentration assays [2]: no or negligible displacement
N#Cc1c(-c2ccccc2)cc(N)nc1SCc1ncc[nH]1 [Compound 6, 2-(((1H-Imidazol-2-yl)methyl)thio)-6-amino-4-phenylnicotinonitrile] | did not show any measurable degree of intrinsic activity | –
N#Cc1c(SCc2csc(-c3ccc(Cl)cc3)n2)nc(N2CCCC2)c(C#N)c1-c1ccc(OCCO)cc1 [neladenoson] | – | primary endpoint of phase 2b clinical trial [3]: failed to meet the primary endpoint
